From patent US20220289715A1, “PESTICIDALLY ACTIVE PYRAZINE-AMIDE COMPOUNDS” (priority 2019, published 2022)

Key:
Type in all cases: in vivo
[1] = tested on: Diabrotica balteata (Corn Root Worm); assay: Example B1: Diabrotica balteata, spray on maize sprouts; details: 96 h, application rate of 200 ppm, L2 larvae, 4 days after infestation, read-out: control in at least one of the two categories (mortality or growth inhibition)
Procedure, shortened: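 Maize sprouts on agar were sprayed with aqueous dilutions of DMSO stock solutions, dried, then infested with L2 larvae (6–10 per well). Mortality and growth inhibition were scored against untreated controls 4 days after infestation; test rate 200 ppm.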

[2] = tested on: Euschistus heros (Neotropical Brown Stink Bug); assay: Example B2: Euschistus heros, spray on soybean leaves; details: 120 h, application rate of 200 ppm, N2 nymphs, 5 days after infestation, read-out: control in at least one of the two categories (mortality or growth inhibition)
Method: Example B2: Euschistus heros (Neotropical Brown Stink Bug)
Soybean leaves on agar in 24-well microtiter plates were sprayed with aqueous test solutions prepared from 10,000 ppm DMSO stock solutions. After drying the leaves were infested with N2 nymphs. The samples were assessed for mortality and growth inhibition in comparison to untreated samples 5 days after infestation.
The following compounds gave an effect of at least 80% control in at least one of the two categories (mortality or growth inhibition) at an application rate of 200 ppm: […]

[3] = tested on: Chilo suppressalis (Striped Rice Stemborer); assay: Example B3: Chilo suppressalis, artificial diet; details: 144 h, application rate of 200 ppm, L2 larvae, 6 days after infestation, read-out: control in at least one of the three categories (mortality, anti-feedant effect, or growth inhibition)
Procedure, shortened: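 Artificial diet was treated with aqueous dilutions made from 10,000 ppm DMSO stocks, dried, and infested with L2 larvae (6-8 per well). After 6 days, mortality, anti-feeding effect and growth inhibition were scored against untreated samples. Control was recorded when any one category exceeded the untreated sample.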

[4] = tested on: Plutella xylostella (Diamond Back Moth); assay: Example B4: Plutella xylostella, artificial diet, 24-well; details: 192 h, application rate of 200 ppm, eggs, 8 days after infestation, read-out: control in at least one of the two categories (mortality or growth inhibition)
Procedure, shortened: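 Artificial diet in 24-well plates treated with aqueous dilutions of DMSO stocks, dried, then infested with diamondback moth eggs. Mortality and growth inhibition scored against untreated samples 8 days after infestation.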

[5] = tested on: Myzus persicae (Green Peach Aphid); assay: Example B5: Myzus persicae, intrinsic activity; details: 120 h, test rate of 12 ppm, 5 days after infestation
From the text: Example B5: Myzus persicae (Green Peach Aphid). Intrinsic Activity
Test compounds prepared from 10,000 ppm DMSO stock solutions were applied by pipette into 24-well microtiter plates and mixed with sucrose solution. The plates were closed with a stretched Parafilm. A plastic stencil with 24 holes was placed onto the plate and infested pea seedlings were placed directly on the Parafilm. The infested plate was closed with a gel blotting paper and another plastic stencil and then turned upside down. The samples were assessed for mortality 5 days after infestation.

[6] = tested on: Spodoptera littoralis (Egyptian Cotton Leaf Worm); assay: Example B6: Spodoptera littoralis, spray on cotton leaf discs; details: foliar, 72 h, application rate of 200 ppm, L1 larvae, 3 days after infestation, read-out: control in at least one of the three categories (mortality, anti-feedant effect, or growth inhibition)
Procedure, shortened: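 Leaf discs on agar sprayed with aqueous solutions made from 10,000 ppm DMSO stocks, then infested after drying with five L1 larvae. Mortality, anti-feeding and growth inhibition scored against untreated samples 3 days after infestation.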

[7] = tested on: Plutella xylostella (Diamondback Moth); assay: Example B9: Plutella xylostella, artificial diet, 96-well; details: 216 h, application rate of 500 ppm, eggs/L1 larvae, 9 days after infestation
Procedure, shortened: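 Test solutions made from 10,000 ppm DMSO stocks were applied to artificial diet in 96-well plates. After drying, ~30 eggs per well were placed on a suspended netted lid so hatching L1 larvae dropped onto the diet. Mortality was scored 9 days after infestation.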

[8] = tested on: Myzus persicae (Green Peach Aphid); assay: Example B10: Myzus persicae, sucrose solution, 96-well; details: 120 h, application rate of 50 ppm, 5 days after infestation
From the text: Example B10: Myzus persicae (Green Peach Aphid)
Test compounds prepared from 10,000 ppm DMSO stock solutions were applied by a liquid handling robot into 96-well microtiter plates and mixed with a sucrose solution. Parafilm was stretched over the 96-well microtiter plate and a plastic stencil with 96 holes was placed onto the plate. Aphids were sieved into the wells directly onto the Parafilm. The infested plates were closed with a gel blotting card and a second plastic stencil and then turned upside down. The samples were assessed for mortality 5 days after infestation.

[9] = tested on: Spodoptera littoralis (Egyptian Cotton Leaf Worm); assay: Example B7: Spodoptera littoralis, uptake by lettuce roots from agar; details: 144 h, test rate of 12.5 ppm, absorbed by lettuce roots, eggs, 6 days after infestation, read-out: control in at least one of the three categories (mortality, anti-feeding, or growth inhibition)
From the text: Example B7: Spodoptera littoralis (Egyptian Cotton Leaf Worm)
Test compounds were applied by pipette from 10,000 ppm DMSO stock solutions into 24-well plates and mixed with agar. Lettuce seeds were placed onto the agar and the multi well plate was closed by another plate which contained also agar. After 7 days the compound was absorbed by the roots and the lettuce grew into the lid plate. The lettuce leaves were then cut off into the lid plate. Spodoptera eggs were pipetted through a plastic stencil onto a humid gel blotting paper and the lid plate was closed with it. The samples were assessed for mortality, anti-feedant effect and growth inhibition in comparison to untreated samples 6 days after infestation.
The following compounds gave an effect of at least 80% control in at least one of the three categories (mortality, anti-feeding, or growth inhibition) at a test rate of 12.5 ppm: […]

[10] = tested on: Tetranychus urticae (Two-Spotted Spider Mite); assay: Example B8: Tetranychus urticae, feeding/contact activity; details: 192 h
Method: Example B8: Tetranychus urticae (Two-Spotted Spider Mite): Feeding/Contact Activity
Bean leaf discs on agar in 24-well microtiter plates were sprayed with aqueous test solutions prepared from 10,000 ppm DMSO stock solutions. After drying the leaf discs were infested with a mite population of mixed ages. The samples were assessed for mortality on mixed population (mobile stages) 8 days after infestation.

CC(NC(=O)c1cc(C(F)F)cc(C(F)(F)F)c1)c1nccnc1-n1nccn1 (stereo not shown) [Compound P3, 3-(difluoromethyl)-N-[1-[3-(triazol-2-yl)pyrazin-2-yl]ethyl]-5-(trifluoromethyl)benzamide]
≥ 80%: percent control (mortality or growth inhibition) at 200 ppm [1] | percent control (mortality or growth inhibition) at 200 ppm [2] | percent control (mortality, anti-feedant effect or growth inhibition) at 200 ppm [3] | percent control (mortality or growth inhibition) at 200 ppm [4] | mortality at 12 ppm [5] | percent control (mortality, anti-feedant effect or growth inhibition) at 200 ppm [6] | mortality at 500 ppm [7] | mortality at 50 ppm [8]

CC(NC(=O)c1cc(C(F)(F)F)cc(C(C)(C)C#N)c1)c1nccnc1-n1nccn1 (stereo not shown) [Compound P6, 3-(1-cyano-1-methyl-ethyl)-N-[1-[3-(triazol-2-yl)pyrazin-2-yl]ethyl]-5-(trifluoromethyl)benzamide]
≥ 80%: percent control (mortality or growth inhibition) at 200 ppm [1] | percent control (mortality or growth inhibition) at 200 ppm [2] | percent control (mortality, anti-feedant effect or growth inhibition) at 200 ppm [3] | percent control (mortality or growth inhibition) at 200 ppm [4] | mortality at 12 ppm [5] | percent control (mortality, anti-feedant effect or growth inhibition) at 200 ppm [6] | mortality at 500 ppm [7] | mortality at 50 ppm [8]

CC(NC(=O)c1cc(OCC(F)F)cc(C(F)(F)F)c1)c1nccnc1-n1nccn1 (stereo not shown) [Compound P12, 3-(2,2-difluoroethoxy)-N-[1-[3-(triazol-2-yl)pyrazin-2-yl]ethyl]-5-(trifluoromethyl)benzamide]
≥ 80%: percent control (mortality or growth inhibition) at 200 ppm [2] | percent control (mortality, anti-feedant effect or growth inhibition) at 200 ppm [3] | percent control (mortality or growth inhibition) at 200 ppm [4] | mortality at 12 ppm [5] | percent control (mortality, anti-feedant effect or growth inhibition) at 200 ppm [6] | percent control (mortality, anti-feeding or growth inhibition) at 12.5 ppm [9] | mortality at 500 ppm [7] | mortality at 50 ppm [8]

CC(NC(=O)c1cc(C(F)(F)F)cc(C2(C#N)CC2)c1)c1nccnc1-n1nccn1 (stereo not shown) [Compound P16, 3-(1-cyanocyclopropyl)-N-[1-[3-(triazol-2-yl)pyrazin-2-yl]ethyl]-5-(trifluoromethyl)benzamide]
≥ 80%: percent control (mortality or growth inhibition) at 200 ppm [1] | percent control (mortality or growth inhibition) at 200 ppm [2] | percent control (mortality, anti-feedant effect or growth inhibition) at 200 ppm [3] | percent control (mortality or growth inhibition) at 200 ppm [4] | mortality at 12 ppm [5] | percent control (mortality, anti-feedant effect or growth inhibition) at 200 ppm [6] | mortality at 500 ppm [7] | mortality at 50 ppm [8]

CC(NC(=O)c1cc(Cl)cc(Br)c1)c1nccnc1-n1nccn1 (stereo not shown) [Compound P35, 3-bromo-5-chloro-N-[1-[3-(triazol-2-yl)pyrazin-2-yl]ethyl]benzamide]
≥ 80%: percent control (mortality or growth inhibition) at 200 ppm [1] | percent control (mortality, anti-feedant effect or growth inhibition) at 200 ppm [3] | percent control (mortality or growth inhibition) at 200 ppm [4] | percent control (mortality, anti-feedant effect or growth inhibition) at 200 ppm [6] | mortality at 200 ppm [10] | mortality at 500 ppm [7] | mortality at 50 ppm [8]

C[C@H](NC(=O)c1cc(OC(F)F)cc(C(F)(F)F)c1)c1nccnc1-n1nccn1 [Compound P39, 3-(difluoromethoxy)-N-[(1S)-1-[3-(triazol-2-yl)pyrazin-2-yl]ethyl]-5-(trifluoromethyl)benzamide]
≥ 80%: percent control (mortality or growth inhibition) at 200 ppm [1] | percent control (mortality or growth inhibition) at 200 ppm [2] | percent control (mortality, anti-feedant effect or growth inhibition) at 200 ppm [3] | percent control (mortality or growth inhibition) at 200 ppm [4] | mortality at 12 ppm [5] | percent control (mortality, anti-feedant effect or growth inhibition) at 200 ppm [6] | percent control (mortality, anti-feeding or growth inhibition) at 12.5 ppm [9]

CC(NC(=O)c1cc(C(F)(F)F)cc(S(=O)(=O)C2CC2)c1)c1nccnc1-n1nccn1 (stereo not shown) [Compound P40, 3-cyclopropylsulfonyl-N-[1-[3-(triazol-2-yl)pyrazin-2-yl]ethyl]-5-(trifluoromethyl)benzamide]
≥ 80%: percent control (mortality, anti-feedant effect or growth inhibition) at 200 ppm [3] | percent control (mortality or growth inhibition) at 200 ppm [4] | mortality at 12 ppm [5] | percent control (mortality, anti-feedant effect or growth inhibition) at 200 ppm [6] | mortality at 500 ppm [7] | mortality at 50 ppm [8]
